Values after ≈ are worked out from the molar mass of the structure shown.
Columns and labels:
Staphylococcus aureus [1] = test: Antibacterial activity against methicillin-resistant Staphylococcus aureus 209P JC1; type: functional
Staphylococcus aureus [2] = test: Antibacterial activity against methicillin-resistant Staphylococcus aureus M-126; type: functional
Staphylococcus aureus [3] = test: Antibacterial activity against carbapenem-resistant Staphylococcus aureus M-126HR; type: functional
Staphylococcus aureus [4] = test: Antibacterial activity against methicillin-resistant Staphylococcus aureus; type: functional
[5] = Solubility in water at 5 mg/mL; type: physicochemical

SMILES | MIC (Staphylococcus aureus [1]) [µg/mL] | MIC (Staphylococcus aureus [2]) [µg/mL] | MIC (Staphylococcus aureus [3]) [µg/mL] | MIC50 (Staphylococcus aureus [4]) [µg/mL] | MIC90 (Staphylococcus aureus [4]) [µg/mL] | solubility [5] [mg/mL]
CSc1c2sc(C3=C(C(=O)O)N4C(=O)[C@H]([C@@H](C)O)[C@H]4[C@H]3C)cn2c[n+]1Cc1ccc(C[n+]2ccccc2)cc1.[Br-].[Br-] | < 0.006 | 0.78 | 1.56 |  |  | 
CSc1c2sc(C3=C(C(=O)O)N4C(=O)[C@H]([C@@H](C)O)[C@H]4[C@H]3C)cn2c[n+]1Cc1cccc(C[N+]23CC[N+](C)(CC2)CC3)c1.[I-].[I-].[I-] | < 0.006 | 0.78 | 1.56 |  |  | 
CSc1c2sc(C3=C(C(=O)O)N4C(=O)[C@H]([C@@H](C)O)[C@H]4[C@H]3C)cn2c[n+]1Cc1cccc(C[N+]23CC[N+](CCCN)(CC2)CC3)c1.[I-].[I-].[I-] | < 0.006 | 0.39 | 0.78 | 0.39 | 0.78 | 20
CSc1c2sc(C3=C(C(=O)O)N4C(=O)[C@H]([C@@H](C)O)[C@H]4[C@H]3C)cn2c[n+]1Cc1cccc(C[n+]2cccc(C(N)=O)c2)c1.[Br-].[Br-] | < 0.006 | 0.39 | 1.56 |  |  | 
CSc1c2sc(C3=C(C(=O)O)N4C(=O)[C@H]([C@@H](C)O)[C@H]4[C@H]3C)cn2c[n+]1Cc1cccc(C[N+]23CC[N+](CCO)(CC2)CC3)c1.[Br-].[I-].[I-] | < 0.006 | 0.78 | 1.56 |  |  | 
CSc1c2sc(C3=C(C(=O)O)N4C(=O)[C@H]([C@@H](C)O)[C@H]4[C@H]3C)cn2c[n+]1Cc1cccc(C[N+]2(C)CCOCC2)c1.[Br-].[Br-] | < 0.006 | 0.78 | 3.13 |  |  | 
CSc1c2sc(C3=C(C(=O)O)N4C(=O)[C@H]([C@@H](C)O)[C@H]4[C@H]3C)cn2c[n+]1Cc1ccc(C[N+]2(C)CCOCC2)cc1.[Br-].[Br-] | < 0.006 | 1.56 | 3.13 |  |  | 
CSc1c2sc(C3=C(C(=O)O)N4C(=O)[C@H]([C@@H](C)O)[C@H]4[C@H]3C)cn2c[n+]1Cc1ccccc1C[N+]1(C)CCOCC1.[Br-].[Br-] | < 0.006 | 1.56 | 3.13 |  |  | 
CSc1c2sc(C3=C(C(=O)O)N4C(=O)[C@H]([C@@H](C)O)[C@H]4[C@H]3C)cn2c[n+]1Cc1cccc(C[n+]2cc3sccn3c2)c1.[Br-].[Br-] | < 0.006 | 0.78 | 1.56 |  |  | 
CSc1c2sc(C3=C(C(=O)O)N4C(=O)[C@H]([C@@H](C)O)[C@H]4[C@H]3C)cn2c[n+]1Cc1ccccc1C[n+]1ccccc1.[Br-].[Br-] | < 0.006 | 1.56 | 3.13 |  |  | 
CSc1c2sc(C3=C(C(=O)O)N4C(=O)[C@H]([C@@H](C)O)[C@H]4[C@H]3C)cn2c[n+]1Cc1cccc(C[N+]2(C)CCCC2)c1.[Br-].[Br-] | < 0.006 | 0.78 | 3.13 |  |  | 
CSc1c2sc(C3=C(C(=O)O)N4C(=O)[C@H]([C@@H](C)O)[C@H]4[C@H]3C)cn2c[n+]1Cc1cccc(C[n+]2ccsc2)c1.[Br-].[Br-] | < 0.006 | 0.78 | 3.13 |  |  | 
CSc1c2sc(C3=C(C(=O)O)N4C(=O)[C@H]([C@@H](C)O)[C@H]4[C@H]3C)cn2c[n+]1Cc1cccc(C[n+]2ccccc2)c1.[Br-].[Br-] | < 0.006 | 0.78 | 1.56 |  |  | 
CSc1c2sc(C3=C(C(=O)O)N4C(=O)[C@H]([C@@H](C)O)[C@H]4[C@H]3C)cn2c[n+]1Cc1cccc(C[N+]23CC[N+](CC(N)=O)(CC2)CC3)c1.[Br-].[I-].[I-] | < 0.006 | 0.78 | 1.56 |  |  | 
CSc1c2sc(C3=C(C(=O)O)N4C(=O)[C@H]([C@@H](C)O)[C@H]4[C@H]3C)cn2c[n+]1Cc1cccc(C[n+]2ccc3ccccc3c2)c1.[Br-].[Br-] | < 0.006 | 0.78 | 1.56 |  |  | 
CSc1c2sc(C3=C(C(=O)[O-])N4C(=O)[C@H]([C@@H](C)O)[C@H]4[C@H]3C)cn2c[n+]1CC(N)=O | < 0.006 | 1.56 (≈ 3.57 µM) | 3.13 (≈ 7.17 µM) |  |  | 
CSc1c2sc(C3=C(C(=O)[O-])N4C(=O)[C@H]([C@@H](C)O)[C@H]4[C@H]3C)cn2c[n+]1Cc1ccc(C#N)cc1 | < 0.006 | 0.78 (≈ 1.58 µM) | 3.13 (≈ 6.33 µM) |  |  | 
CSc1c2sc(C3=C(C(=O)[O-])N4C(=O)[C@H]([C@@H](C)O)[C@H]4[C@H]3C)cn2c[n+]1Cc1ccccc1 | < 0.006 | 0.39 (≈ 0.831 µM) | 1.56 (≈ 3.32 µM) |  |  | 
CSc1c2sc(C3=C(C(=O)[O-])N4C(=O)[C@H]([C@@H](C)O)[C@H]4[C@H]3C)cn2c[n+]1Cc1cccc(N)c1 | < 0.006 | 0.78 (≈ 1.61 µM) | 3.13 (≈ 6.46 µM) |  |  | 
CSc1c2sc(C3=C(C(=O)[O-])N4C(=O)[C@H]([C@@H](C)O)[C@H]4[C@H]3C)cn2c[n+]1Cc1ccc(Cl)cc1 | < 0.006 | 0.78 (≈ 1.55 µM) | 1.56 (≈ 3.1 µM) |  |  | 
CCN(CC)C(=O)c1ccc(C[n+]2cn3cc(C4=C(C(=O)[O-])N5C(=O)[C@H]([C@@H](C)O)[C@H]5[C@H]4C)sc3c2SC)cc1 | 0.013 (≈ 0.0229 µM) | 1.56 (≈ 2.74 µM) | 6.25 (≈ 11 µM) |  |  | 
COc1cccc(C[n+]2cn3cc(C4=C(C(=O)[O-])N5C(=O)[C@H]([C@@H](C)O)[C@H]5[C@H]4C)sc3c2SC)c1 | < 0.006 | 0.78 (≈ 1.56 µM) | 1.56 (≈ 3.12 µM) |  |  | 
CSc1c2sc(C3=C(C(=O)[O-])N4C(=O)[C@H]([C@@H](C)O)[C@H]4[C@H]3C)cn2c[n+]1Cc1ccc(C(=O)O)cc1 | 0.025 (≈ 0.0487 µM) | 3.13 (≈ 6.09 µM) | 12.5 (≈ 24.3 µM) |  |  | 
CSc1c2sc(C3=C(C(=O)[O-])N4C(=O)[C@H]([C@@H](C)O)[C@H]4[C@H]3C)cn2c[n+]1Cc1cccc(O)c1 | < 0.006 | 0.39 (≈ 0.803 µM) | 1.56 (≈ 3.21 µM) |  |  | 
C[C@@H](O)[C@H]1C(=O)N2C(C(=O)O)=C(SCCNC=N)C[C@H]12 [IMIPENEM ANHYDROUS] | 0.013 (≈ 0.0434 µM) | 25 (≈ 83.5 µM) | 100 (≈ 334 µM) |  |  | 
CN[C@H](CC(C)C)C(=O)N[C@H]1C(=O)N[C@@H](CC(N)=O)C(=O)N[C@H]2C(=O)N[C@H]3C(=O)N[C@H](C(=O)N[C@H](C(=O)O)c4cc(O)cc(O)c4-c4cc3ccc4O)[C@H](O)c3ccc(c(Cl)c3)Oc3cc2cc(c3O[C@@H]2O[C@H](CO)[C@@H](O)[C@H](O)[C@H]2O[C@H]2C[C@](C)(N)[C@H](O)[C@H](C)O2)Oc2ccc(cc2Cl)[C@H]1O [VANCOMYCIN] | 0.78 (≈ 0.538 µM) | 1.56 (≈ 1.08 µM) | 1.56 (≈ 1.08 µM) | 1.56 (≈ 1.08 µM) | 1.56 (≈ 1.08 µM) | 

— ChEMBL document CHEMBL1154519, “Synthesis of novel di- and tricationic carbapenems with potent anti-MRSA activity” (Bioorg Med Chem Lett, 2009)
